Experimental data: ChEMBL document CHEMBL3621195, “Analogues of the marine alkaloids oroidin, clathrodin, and hymenidin induce apoptosis in human HepG2 and THP-1 cancer cells” (Medchemcomm, 2015)

tested on: HepG2; test: Induction of apoptosis in human HepG2 cells at 50 uM incubated for 24 hrs by Annexin V-FITC and propidium iodide staining based microcapillary flow cytometry; assay type: functional; conditions: not given

Structure (SMILES)	Activity [%]
COCc1c(C(=O)Nc2cccc(-c3ccn[nH]3)c2)sc2cccc(F)c12	65
Nc1nc2c(s1)C[C@@H](NC(=O)c1cc3ccccc3[nH]1)CC2	27
Cl.Nc1nc(-c2cccc(NC(=O)c3cc4cc(OCc5ccccc5)ccc4[nH]3)c2)c[nH]1	50
CC(C)(C)OC(=O)n1cc(-c2cccc(NC(=O)c3cc4cc(O)ccc4[nH]3)c2)nc1N	56
Nc1ncc(/C=C/CNC(=O)c2ccc[nH]2)[nH]1 [CLATHRODIN]	27
CC(C)(C)OC(=O)n1cc(-c2cccc(NC(=O)c3cc4cc(F)ccc4[nH]3)c2)nc1N	89
Nc1nc2c(s1)C[C@@H](NC(=O)c1ccco1)CC2	29
CC(C)(C)OC(=O)n1cc(-c2cccc(NC(=O)c3cc4cc(OC(F)(F)F)ccc4[nH]3)c2)nc1N	43
O=C(Nc1cccc(-c2ccn[nH]2)c1)c1cc2ccccc2[nH]1	68
Cc1nc(-c2cccc(NC(=O)c3cc4ccccc4[nH]3)c2)cs1	57
CNc1nc(-c2cccc(NC(=O)c3ccco3)c2)cn1C(=O)OC(C)(C)C	44
Cc1cc(C)n2nc(C(=O)Nc3cccc(-c4ccn[nH]4)c3)nc2n1	31
O=C(Nc1cccc(-n2cnnn2)c1)c1cn2ccccc2n1	27
Nc1nc(/C=C/CNC(=O)c2cc3cc(F)ccc3[nH]2)c[nH]1	38
Nc1nc(/C=C/CNC(=O)c2ccccc2)c[nH]1	33
Cc1ccn2cc(C(=O)Nc3cccc(-c4nnco4)c3)nc2c1	6
COc1ccc2[nH]c(C(=O)Nc3cccc(-c4cn(C(=O)OC(C)(C)C)c(N)n4)c3)cc2c1	87
O=C(c1ccc[nH]1)N1CCN(Cc2c[nH]cn2)CC1	23
CC(C)(C)OC(=O)N1CCC[C@H]1C(=O)NCC1CCc2nc(N)sc2C1 (stereo not given in full)	23
Cl.Cl.Nc1nc(CN2CCN(Cc3ccccc3)CC2)c[nH]1	32
Cl.Cl.Nc1nc(CN2CCN(Cc3ccc[nH]3)CC2)c[nH]1	34
Cl.Cl.Nc1nc(-c2cccc(NC(=O)C3CCCN3)c2)c[nH]1 (single isomer, unassigned)	16
Nc1nc(/C=C/CNC(=O)c2cc3ccccc3[nH]2)c[nH]1	36

Structure (SMILES)	Activity [%]
Nc1nc2c(s1)CC(CNC(=O)c1ccc[nH]1)CC2 (stereo not given)	20
Cl.Nc1nc(-c2cccc(NC(=O)c3cc[nH]c3)c2)c[nH]1	16
CC(C)(C)OC(=O)n1cc(-c2cccc(NCc3ccc[nH]3)c2)nc1N	40
CC(C)(C)OC(=O)n1cc(-c2cccc(NC(=O)c3cc4cc(Cl)ccc4[nH]3)c2)nc1N	91
Cl.Cl.Nc1nc2c(s1)C[C@@H](NC(=O)[C@@H]1CCCN1)CC2	22
Nc1nc2c(s1)C[C@@H](NCc1ccc[nH]1)CC2	30
CNC1=NC(c2cccc(NC(=O)c3ccc[nH]3)c2)CN1.Cl (stereo not given)	28
Nc1ncc(CC(=O)N2CCN(C(=O)c3ccc[nH]3)CC2)s1	23
Nc1nc(CCCNC(=O)c2ccc[nH]2)c[nH]1	25
CC(C)(C)OC(=O)N1CCC[C@@H]1C(=O)Nc1ccc(-c2cn(C(=O)OC(C)(C)C)c(N)n2)cc1	23
Cc1ccc2cc(C(=O)Nc3cccc(C(N)=O)c3)[nH]c2c1	66
CC(C)(C)OC(=O)n1cc(-c2cccc(NC(=O)c3ccc[nH]3)c2)nc1N	21
CC(C)(C)OC(=O)n1cc(-c2cccc(NC(=O)c3c[nH]c4ccccc34)c2)nc1N	62
Cl.Cl.Nc1nc2c(s1)CC(CNC(=O)[C@@H]1CCCN1)CC2 (stereo not given in full)	27
CC(C)(C)OC(=O)n1cc(-c2ccc(NCc3ccc[nH]3)cc2)nc1N	34
Cl.Nc1nc(-c2cccc(NC(=O)c3cc4cc(O)ccc4[nH]3)c2)c[nH]1	19
CNC1=NC(c2cccc(NC(=O)c3ccc[nH]3)c2)CN1C(=O)OC(C)(C)C (stereo not given)	31
CC(C)(C)OC(=O)n1cc(-c2cccc(NC(=O)c3cc4sccc4[nH]3)c2)nc1N	86
Cc1c(NC(=O)c2cc3ccccc3o2)cccc1-n1cnnn1	45
Cl.Cl.Nc1nc(-c2ccc(NC(=O)[C@@H]3CCCN3)cc2)c[nH]1	22
O=C1CCc2cc(C(=O)Nc3cccc(-c4ccn[nH]4)c3)ccc2N1	26
CNC1=NC(c2cccc(NC(=O)c3cc4ccccc4[nH]3)c2)CN1.Cl (stereo not given)	27
Cc1cc(=O)[nH]c(-c2cccc(NC(=O)c3ccc(N(C)C)cc3)c2)n1	37

Structure (SMILES)	Activity [%]
CNC1=NC(c2cccc(NC(=O)c3ccco3)c2)CN1.Cl (stereo not given)	28
COc1ccc2[nH]c(C(=O)Nc3cccc(-c4c[nH]c(N)n4)c3)cc2c1.Cl	78
O=C(Nc1cccc(N2CCCC2=O)c1)c1cc2ccccc2[nH]1	43
CC(C)(C)OC(=O)N1CCCC1C(=O)Nc1cccc(-c2cn(C(=O)OC(C)(C)C)c(N)n2)c1 (single isomer, unassigned)	18
Nc1nc2c(s1)C[C@@H](NC(=O)c1ccc[nH]1)CC2	23
O=C(Nc1cccc(-c2ccn[nH]2)c1)c1ccc2[nH]cnc2c1	47
CC(C)(C)OC(=O)n1cc(-c2cccc(NC(=O)c3cc[nH]c3)c2)nc1N	19
CC(C)(C)OC(=O)n1cc(-c2ccc(NCc3c[nH]cn3)cc2)nc1N	39
O=C(NC1CC1)c1cccc(NC(=O)c2cc3c(F)cccc3[nH]2)c1	51
O=C(Nc1cccc(-c2ccn[nH]2)c1)c1cc2ccccc2c(=O)[nH]1	91
O=C(Nc1cccc(-c2ccn[nH]2)c1)c1cc2ccccc2o1	40
CC(C)(C)OC(=O)n1cc(-c2cccc(NC(=O)c3cc4ccccc4[nH]3)c2)nc1N	75
CNC1=NC(c2cccc(NC(=O)c3ccco3)c2)CN1C(=O)OC(C)(C)C (stereo not given)	32
Cn1cccc1C(=O)N[C@H]1CCc2nc(N)sc2C1	20
O=C(Nc1cccc(-n2cnnn2)c1)c1cc2c(F)cccc2s1	39
Nc1nc(-c2cccc(NCc3ccc[nH]3)c2)cn1Cc1ccccc1	86
CNC1=NC(c2cccc(NC(=O)c3cc4ccccc4[nH]3)c2)CN1C(=O)OC(C)(C)C (stereo not given)	74
Cl.Cl.Nc1nc(CN2CCN(C(=O)c3cc4ccccc4[nH]3)CC2)c[nH]1	32
Nc1ncc(/C=C/CNC(=O)c2cc(Br)c(Br)[nH]2)[nH]1 [OROIDIN]	35
CNc1nc(-c2cccc(NC(=O)c3cc4ccccc4[nH]3)c2)cn1C(=O)OC(C)(C)C	90
Cl.Cl.Nc1nc(CN2CCN(C(=O)c3c[nH]c4ccccc34)CC2)c[nH]1	30
Cl.Cl.Cl.Nc1nc(CN2CCN(C(=O)[C@@H]3CCCN3)CC2)c[nH]1	28
CCn1nnnc1-c1cccc(NC(=O)c2cc3ccccc3[nH]2)c1	28

Structure (SMILES)	Activity [%]
Nc1nc2c(s1)CC(CNC(=O)c1cc3ccccc3[nH]1)CC2 (stereo not given)	32
Nc1nc(-c2cccc(NC(=O)c3ccc[nH]3)c2)cn1Cc1ccccc1	54
O=C(Nc1cccc(-c2ccn[nH]2)c1)c1ccc2[nH]nnc2c1	20
CC(C)(C)OC(=O)n1cc(-c2cccc(NC(=O)c3cc4cc(OCc5ccccc5)ccc4[nH]3)c2)nc1N	81
CC(C)(C)OC(=O)N1CCC[C@H]1C(=O)Nc1ccc(-c2cn(C(=O)OC(C)(C)C)c(N)n2)cc1	20
CCn1cnnc1-c1cccc(NC(=O)c2cc3ccc(C)cc3[nH]2)c1	55
CNc1nc(-c2cccc(NC(=O)c3cc4ccccc4[nH]3)c2)c[nH]1.Cl	91
CC(C)(C)OC(=O)n1cc(-c2ccc(NC(=O)c3ccc[nH]3)cc2)nc1N	24
Cl.Nc1nc(-c2cccc(NC(=O)c3ccc[nH]3)c2)c[nH]1	13
Cl.Nc1nc(-c2cccc(NC(=O)c3c[nH]c4ccccc34)c2)c[nH]1	55
Cl.Cl.Nc1nc(CN2CCN(C(=O)c3ccc[nH]3)CC2)c[nH]1	27
Cc1nc(-c2cccc(NC(=O)c3cn4ccccc4n3)c2)cs1	25
Cl.Nc1nc(-c2cccc(NC(=O)c3cc4sccc4[nH]3)c2)c[nH]1	96
CC(C)(C)OC(=O)n1cc(-c2ccc(NC(=O)c3cc4ccccc4[nH]3)cc2)nc1N	90
Nc1nc2c(s1)C[C@@H](NC(=O)c1cc(Br)c[nH]1)CC2	28
Cl.Nc1nc(-c2ccc(NC(=O)c3ccc[nH]3)cc2)c[nH]1	20
O=C(Nc1cccc(-n2cnnn2)c1)c1cc2ccccc2[nH]1	56
Cl.Nc1nc(-c2cccc(NC(=O)c3cc4ccccc4[nH]3)c2)c[nH]1	77
Nc1nc(/C=C/CNC(=O)c2cc(Br)c[nH]2)c[nH]1	25
Cl.Cl.Nc1nc(CN2CCN(C(=O)c3cccnc3)CC2)c[nH]1	28
Nc1nc2c(s1)C[C@@H](NC(=O)c1cc(Br)c(Br)[nH]1)CC2	35
Nc1nc2c(s1)CC(CNC(=O)c1cc(Br)c(Br)[nH]1)CC2 (stereo not given)	23
Nc1ncc(C(=O)N2CCN(C(=O)c3ccc[nH]3)CC2)s1	20

tested on: HepG2; test: Induction of apoptosis in human HepG2 cells incubated for 24 hrs by Annexin V-FITC and propidium iodide staining based microcapillary flow cytometry; assay type: functional, cell-based; conditions: HepG2, 24 h

EC50 [µM]	Structure (SMILES)
18	COc1ccc2[nH]c(C(=O)Nc3cccc(-c4c[nH]c(N)n4)c3)cc2c1.Cl
20	CNc1nc(-c2cccc(NC(=O)c3cc4ccccc4[nH]3)c2)c[nH]1.Cl
42	Cl.Nc1nc(-c2cccc(NC(=O)c3cc4sccc4[nH]3)c2)c[nH]1

tested on: THP-1; test: Induction of apoptosis in human THP1 cells incubated for 24 hrs by Annexin V-FITC and propidium iodide staining based microcapillary flow cytometry; assay type: functional, cell-based; conditions: THP-1, 24 h

EC50 [µM]	Structure (SMILES)
20	COc1ccc2[nH]c(C(=O)Nc3cccc(-c4c[nH]c(N)n4)c3)cc2c1.Cl
24	CNc1nc(-c2cccc(NC(=O)c3cc4ccccc4[nH]3)c2)c[nH]1.Cl
> 50	Cl.Nc1nc(-c2cccc(NC(=O)c3cc4sccc4[nH]3)c2)c[nH]1

tested on: THP-1; test: Induction of apoptosis in human THP1 cells at 50 uM incubated for 24 hrs by Annexin V-FITC and propidium iodide staining based microcapillary flow cytometry; assay type: functional; conditions: not given

Structure (SMILES)	Activity [%]
COc1ccc2[nH]c(C(=O)Nc3cccc(-c4c[nH]c(N)n4)c3)cc2c1.Cl	87
CNc1nc(-c2cccc(NC(=O)c3cc4ccccc4[nH]3)c2)c[nH]1.Cl	87
Cl.Nc1nc(-c2cccc(NC(=O)c3cc4sccc4[nH]3)c2)c[nH]1	12

tested on: THP-1; test: Induction of cell cycle arrest in human THP1 cells assessed accumulation at subG1 phase at 25 uM incubated for 24 hrs by propidium iodide staining based microcapillary flow cytometry (reference value: 2 +/- 1%); assay type: functional; conditions: not given

Structure (SMILES)	Activity [%]
COc1ccc2[nH]c(C(=O)Nc3cccc(-c4c[nH]c(N)n4)c3)cc2c1.Cl	45
CNc1nc(-c2cccc(NC(=O)c3cc4ccccc4[nH]3)c2)c[nH]1.Cl	18

tested on: THP-1; test: Induction of cell cycle arrest in human THP1 cells assessed accumulation at subG1 phase at 25 uM incubated for 48 hrs by propidium iodide staining based microcapillary flow cytometry (reference value: 2 +/- 1%); assay type: functional; conditions: not given

Structure (SMILES)	Activity [%]
COc1ccc2[nH]c(C(=O)Nc3cccc(-c4c[nH]c(N)n4)c3)cc2c1.Cl	60
CNc1nc(-c2cccc(NC(=O)c3cc4ccccc4[nH]3)c2)c[nH]1.Cl	49
